We go through 2 molecules from US20240174598A1, “COMPOUNDS FOR THE TREATMENT OF DISORDERS AND SALTS AND POLYMORPHS THEREOF” (OccuRx Pty Ltd, priority 2021, published 2024).

The nature of data set [1]: Intrinsic dissolution studies (disc, Wood's die). It counts as physicochemical. As to the method:
Discs for the intrinsic dissolution evaluation were prepared by weighing approximately 175 mg of each batch and compressing with a small hydraulic press in a 13 mm Wood's die for 3 minutes at a force of approximately 3000 lbs. The surface of each disc was examined carefully to ensure that it was uniform, smooth and free from loose powder.
The dissolution experiments were conducted by attaching the Wood's die containing the disc, to the matching shafts on an Erweka DT6 dissolution apparatus. The discs were lowered into the media (500 mL at 37° C.) and immediately rotated at 100 rpm. Duplicate samples of the media (0.2 mL) were removed prior to immersion of the disc and then at 2, 5, 10, 15, 20, 25, 30, 60 and 90 minutes after the experiment was initiated. Sampling was discontinued if substantial dissolution was visible or if the disc disintegrated in the media.
At the end of each experiment, the discs were removed from the media and examined to ensure that the surface of the discs remained uniform and to qualitatively assess the extent of dissolution over the course of the experiment. Media samples were centrifuged (10000 rpm×3 min) and a small aliquot (50 μL) removed, 5-fold diluted with 50% aqueous acetonitrile prior to HPLC analysis.

Data set [2] in a line: Dynamic vapor sorption (DVS) analysis. Particulars: for stability to humidity: over a wide range of humidity. It is filed as physicochemical. As to the method:
Approximately, 10-20 mg of sample was placed into a mesh vapor sorption balance pan and loaded into a DVS Intrinsic dynamic vapor sorption balance by Surface Measurement Systems. The sample was subjected to a ramping profile from 40-90% relative humidity (RH) at 10% increments, maintaining the sample at each step until a stable weight had been achieved (dm/dt 0.004%, minimum step length 30 minutes, maximum step length 500 minutes) at 25° C. After completion of the sorption cycle, the sample was dried using the same procedure to 0% RH and then a second sorption cycle back to 40% RH. Two cycles were performed. The weight change during the sorption/desorption cycles were plotted, allowing for the hygroscopic nature of the sample to be determined. XRPD analysis was then carried out on any solid retained.

The structures appear in SMILES notation. Structures can show the parent of a compound that is named as a salt.

With `COc1cc(/C=C/C(=O)Nc2ccccc2C(=O)O)ccc1OC(F)F` [Crystalline Salt A], the “dissolution profile compared to the free acid of the compound of Formula (I)” value in data set [1] (FaSSIF media, 37° C. (FIG. 12)) is “superior”; in data set [1] (PBS media, 37° C. (FIG. 13)) it was “superior”. Further, the “water uptake corresponding to the mass increase” value in data set [2] (at 90% RH) was 1.3 equiv. of water. The “mass increase by dynamic vapor sorption” value in data set [2] (at 90% Relative Humidity (RH)) worked out at 4.2 wt. %. Further, the stability to humidity entry in data set [2] was “stable over a wide range of humidity”.

As to `COc1cc(/C=C/C(=O)Nc2ccccc2C(=O)O)ccc1OC(F)F` [Crystalline Salt B], in data set [1] (FaSSIF media, 37° C. (FIG. 12)), the “dissolution profile compared to the free acid of the compound of Formula (I)” value was “superior”. Besides, the “dissolution profile compared to the free acid of the compound of Formula (I)” value in data set [1] (PBS media, 37° C. (FIG. 13)) is “equivalent, if not better”. Besides, in data set [2], the “hygroscopicity by dynamic vapor sorption/desorption analysis” value was “non-hygroscopic” and the stability to humidity entry is recorded as “stable over a wide range of humidity”. In addition, the “water uptake by dynamic vapor sorption” value in data set [2] (at 90% RH) is recorded as “negligible water uptake”.
